Values quoted from earlier work as cited in PMC8762078, “An ALS-associated variant of the autophagy receptor SQSTM1/p62 reprograms binding selectivity toward the autophagy-related hATG8 proteins” (The Journal of Biological Chemistry, 2021).
“Also recorded” adds a separate entry of the source.

Tests used:
GABARAPL2 = GABARAPL2 (Homo sapiens, UniProt P60520); conditions: ITC, compared with p62 WT-AIM
Text: A comparison may be drawn between the GABARAPL2/p62 AIM model produced here and the GABARAPL2/UBA5 AIM structure, the only published structure of an AIM-bound GABARAPL2 ([38]). Both involve the formation of an intermolecular β-sheet between the AIM and the β2 strand of GABARAPL2; however, the UBA5 AIM is atypical, and this produces a noncanonical interaction. The UBA5 AIM sequence ([…]) leads to the formation of a binding pocket not observed in the GABARAPL2/p62 AIM model proposed here or in any other hATG8/AIM interaction, due to the spacing of the key residues. The RMSD between these two ...

motor neurone-like cells = system: motor neurone-like cells
Text: Autophagy is a central pathway for the removal of aggregated or damaged proteins and organelles and is critical to cellular homeostasis. Deregulation of autophagy is recognized as a pathogenic mechanism contributing to a range of neurodegenerative disorders, including amyotrophic lateral sclerosis (ALS) and frontotemporal lobar degeneration (FTLD) ([1], [2], [3], [4]). These conditions form a disease spectrum (ALS-FTLD) defined primarily by ubiquitinated inclusions of TAR DNA-binding protein-43 kDa in neurones ([5]). The link between ALS-FTLD and autophagy is reinforced by the identification o ... || A clear effect of the ALS-associated L341V mutation of p62/hATG8 interactions has been shown through these in vitro studies, though the impact remains relatively modest with individual interaction affinity alterations of up to approximately twofold. However, the interactions are best contextualized around the tendency for p62 to assemble into nanoscale filaments, which have been amenable to cryo-EM structural characterization (Fig. 6A) ([17], [52]). The N-terminal PB1 domain of p62 assembles into a helical protein scaffold with the flexible C-terminal chain, which carries the AIM and UBA domai ...

GABARAPL2, sequence (P60520 whole entry): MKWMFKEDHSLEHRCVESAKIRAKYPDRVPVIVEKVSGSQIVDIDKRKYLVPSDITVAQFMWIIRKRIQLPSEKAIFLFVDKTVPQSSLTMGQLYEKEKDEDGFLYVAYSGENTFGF

For WGIELV [UBA5 AIM], the “thermodynamic profile of GABARAPL2/UBA5 interaction” value (GABARAPL2) is listed as “more enthalpically driven than the interaction with p62 reported here”.
In the case of “p62 L341V: ALS-associated L341V variant of the SQSTM1/p62 autophagy receptor”, the “p62 recruitment into autophagic vesicles” value (motor neurone-like cells) is given as “defect in p62 protein recruitment into autophagic vesicles; also recorded: reduction in p62 recruitment to acidic autophagic vesicles”.
